In US4675427A, “Tetraphosphine-coordinated gold(I) complexes” (Smith Kline Beckman Corporation, priority 1985, dated 1987):
Where “and” joins values, the source holds several entries; their conditions need not be identical. Equal values may be shown once.

How the values were obtained:
[1] = disclosed by Struck et al. (1966); cited from earlier work
[2] = system: P388 lymphocytic leukemia; assay: in vivo ip P388 leukemia mouse model
Text: P388 lymphocytic leukemia is currently the most widely used animal tumor model for screening for antitumor agents and for detailed evaluation of active compounds. This tumor system is widely accepted as an antitumor agent screening tool because it is sensitive to virtually all of the clinically active antineoplastic agents; quantitative and reproducible; amenable for large-scale screening; and predictive for activity in other animal tumor models.
10^6 P388 leukemia cells are inoculated ip in B6D2F1 mice. Twenty-four hours later, if the tumor inoculum proves to be free of bacterial contamination (as determined by 24 hours incubation in thioglycollate broth), animals are randomized into groups of 6 and housed in shoebox cages. The compound to be evaluated is dissolved in a minimal volume of N,N-dimethylacetamide (DMA). An equal volume of saline is added; if the drug comes out of solution an equal volume of polyethoxylated castor oil is added and then saline qs to a concentration such that the desired dose is delivered in 0.5 ml. The final concentration of DMA and polyethoxylated castor oil is 10 percent. Dilutions for lower doses are made with saline so there is a decreasing proportion of organic solvents in the vehicle with decreasing dosage. This vehicle provides a soluble formulation. […] Animals are monitored daily for mortality and experiments are terminated after 45 days. […]

B16 melanoma = assay: in vivo ip B16 melanoma assay; parameters: species or system mouse
Procedure: In this system, groups of eight B6D2F1 mice are inoculated ip with 0.5 ml of a 10% (w:v) brei of […] prepared from pooled sc tumors excised at 14-21 days from […] donor mice. Daily treatment is begun 24 hours after tumor implantation and is continued daily for ten (10) days. The route of drug administration is ip. The mice are monitored daily for survival for sixty (60) days. Antitumor activity is assessed by prolongation of median survival time. An ILS of ≥25% indicates activity in this tumor model.

[3] = system: M5076 reticulum cell sarcoma; assay: ip implanted M5076 reticulum cell sarcoma tumor model in mice; assay type: in vivo, mouse
Procedure: Another chemosensitive tumor model is intraperitoneally (ip) implanted M5076 reticulum cell sarocma in mice. In this system B6D2F female mice are inoculated with 0.5 ml of a 10 percent (w:v) brei of M5076 prepared from pooled subcutaneous (sc) tumors excised at about 21 days from C57B1/6 donors. Drugs are administered ip. Daily treatment is begun 24 hours after implantation and is continued for ten days. The treatment regimen for M5076 is more prolonged than for P388 because of the slower growth rate and longer control survival time of the M5076 tumor. A drug is considered active in this tumor model if it produces ≥25% ILS.

| Compound | cytotoxic activity [1] | MTD (maximally tolerated dose) ([2]; B62DF female mice, ip qDX5 regimen) [mg/kg] | ILS (max), maximum increase in lifespan ([2]; mice bearing ip P388 leukemia, ip Days 1 through 5, figures separated by slashes are from separate experiments) | MTD (maximally tolerated dose) (B16 melanoma; B6D2F1 mice, ip qD × 10 regimen) [mg/kg] | ILS, maximum increase in lifespan (B16 melanoma; mice bearing ip B16 melanoma, ip daily for ten days) [%] | MTD (maximally tolerated dose) ([3]; B6D2F female mice, ip qD × 10 regimen) [mg/kg] | ILS (MAX), maximum increase in lifespan ([3]; mice bearing ip M5076 reticulum cell sarcoma, ip daily for ten days) [%] |
| --- | --- | --- | --- | --- | --- | --- | --- |
| c1ccc(P(CCP(c2ccccc2)c2ccccc2)c2ccccc2)cc1 [1,2-bis(diphenylphosphino)ethane] | cytotoxic activity | – | – | – | – | – | – |
| [Cl][Au].c1ccc(P(CCP(CCP(c2ccccc2)c2ccccc2)c2ccccc2)CCP(c2ccccc2)c2ccccc2)cc1 (stereo not shown) [Compound 1, Chloro[1,1,4,7,10,10-hexaphenyl-1,4,7,10-tetraphosphodecane-P^1, P^4, P^7, P^10] gold(I)] | – | 3 | 40% and 65% | 2 | 37 | 2 | 38 |
